How the values were obtained:
[1] = target: T1, Prostaglandin G/H synthase 2 (Homo sapiens, UniProt P35354); assay: Inhibition of COX2 (unknown origin)
T1 sequence (P35354 whole entry): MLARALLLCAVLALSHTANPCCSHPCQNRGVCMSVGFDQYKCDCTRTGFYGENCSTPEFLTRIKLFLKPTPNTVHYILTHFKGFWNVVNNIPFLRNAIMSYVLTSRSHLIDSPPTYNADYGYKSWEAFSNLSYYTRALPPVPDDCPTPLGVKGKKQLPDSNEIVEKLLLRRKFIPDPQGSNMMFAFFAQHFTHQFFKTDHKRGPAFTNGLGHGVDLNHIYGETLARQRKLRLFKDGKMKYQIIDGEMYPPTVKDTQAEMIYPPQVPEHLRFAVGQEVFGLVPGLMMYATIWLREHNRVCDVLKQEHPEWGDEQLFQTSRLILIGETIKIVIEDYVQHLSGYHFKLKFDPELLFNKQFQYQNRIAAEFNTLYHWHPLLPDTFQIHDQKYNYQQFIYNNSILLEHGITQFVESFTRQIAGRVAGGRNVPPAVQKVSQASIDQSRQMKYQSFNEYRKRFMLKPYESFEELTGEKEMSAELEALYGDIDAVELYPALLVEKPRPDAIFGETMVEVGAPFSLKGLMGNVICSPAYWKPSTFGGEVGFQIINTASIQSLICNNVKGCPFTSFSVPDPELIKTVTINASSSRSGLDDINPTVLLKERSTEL

[2] = target: Beta-secretase 1 (Homo sapiens, UniProt P56817); assay: Inhibition of BACE1 (unknown origin)
Beta-secretase 1, sequence (P56817 whole entry): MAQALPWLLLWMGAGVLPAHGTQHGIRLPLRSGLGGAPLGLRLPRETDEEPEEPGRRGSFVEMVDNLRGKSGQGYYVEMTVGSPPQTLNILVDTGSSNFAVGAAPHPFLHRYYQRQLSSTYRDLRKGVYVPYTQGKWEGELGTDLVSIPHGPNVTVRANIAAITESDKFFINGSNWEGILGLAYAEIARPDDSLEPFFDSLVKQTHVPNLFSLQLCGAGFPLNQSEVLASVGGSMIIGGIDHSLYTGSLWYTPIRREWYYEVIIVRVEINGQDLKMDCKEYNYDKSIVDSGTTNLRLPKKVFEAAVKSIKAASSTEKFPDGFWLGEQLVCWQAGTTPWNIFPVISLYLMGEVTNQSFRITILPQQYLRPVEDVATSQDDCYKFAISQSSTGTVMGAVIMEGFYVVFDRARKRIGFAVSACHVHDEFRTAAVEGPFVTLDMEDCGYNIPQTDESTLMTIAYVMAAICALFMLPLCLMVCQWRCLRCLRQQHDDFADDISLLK

[3] = tested on: Rattus norvegicus; assay: Inhibition of glucose-induced sorbitol accumulation in sciatic nerve of streptozotocin-induced diabetic rat model administered via oral gavage at 4 to 24 hrs post streptozotocin treatment measured at 27 hrs post streptozotocin treatment relative to control; type: functional
[4] = target: T2, Acetylcholinesterase (Homo sapiens, UniProt P22303); assay: Inhibition of AChE (unknown origin)
T2 sequence (P22303 whole entry): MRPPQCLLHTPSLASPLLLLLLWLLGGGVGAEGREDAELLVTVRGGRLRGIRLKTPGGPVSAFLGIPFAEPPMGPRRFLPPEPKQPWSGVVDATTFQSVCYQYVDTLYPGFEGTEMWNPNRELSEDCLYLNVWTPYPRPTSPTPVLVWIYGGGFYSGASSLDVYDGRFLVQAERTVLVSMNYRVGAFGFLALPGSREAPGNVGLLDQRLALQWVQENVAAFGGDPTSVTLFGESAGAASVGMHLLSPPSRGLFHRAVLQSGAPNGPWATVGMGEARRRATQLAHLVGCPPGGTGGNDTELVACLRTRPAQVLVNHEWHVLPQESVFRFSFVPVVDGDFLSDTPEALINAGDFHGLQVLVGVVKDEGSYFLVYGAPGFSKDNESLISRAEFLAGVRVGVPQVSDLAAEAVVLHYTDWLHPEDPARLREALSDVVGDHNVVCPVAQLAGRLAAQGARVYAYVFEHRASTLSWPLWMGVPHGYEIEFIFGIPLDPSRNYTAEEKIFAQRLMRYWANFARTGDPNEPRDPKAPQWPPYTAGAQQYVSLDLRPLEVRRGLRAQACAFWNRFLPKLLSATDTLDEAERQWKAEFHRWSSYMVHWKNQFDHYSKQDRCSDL

[5] = target: Cholinesterase (Homo sapiens, UniProt P06276); assay: Inhibition of BuChE (unknown origin)
Cholinesterase, sequence (P06276 whole entry): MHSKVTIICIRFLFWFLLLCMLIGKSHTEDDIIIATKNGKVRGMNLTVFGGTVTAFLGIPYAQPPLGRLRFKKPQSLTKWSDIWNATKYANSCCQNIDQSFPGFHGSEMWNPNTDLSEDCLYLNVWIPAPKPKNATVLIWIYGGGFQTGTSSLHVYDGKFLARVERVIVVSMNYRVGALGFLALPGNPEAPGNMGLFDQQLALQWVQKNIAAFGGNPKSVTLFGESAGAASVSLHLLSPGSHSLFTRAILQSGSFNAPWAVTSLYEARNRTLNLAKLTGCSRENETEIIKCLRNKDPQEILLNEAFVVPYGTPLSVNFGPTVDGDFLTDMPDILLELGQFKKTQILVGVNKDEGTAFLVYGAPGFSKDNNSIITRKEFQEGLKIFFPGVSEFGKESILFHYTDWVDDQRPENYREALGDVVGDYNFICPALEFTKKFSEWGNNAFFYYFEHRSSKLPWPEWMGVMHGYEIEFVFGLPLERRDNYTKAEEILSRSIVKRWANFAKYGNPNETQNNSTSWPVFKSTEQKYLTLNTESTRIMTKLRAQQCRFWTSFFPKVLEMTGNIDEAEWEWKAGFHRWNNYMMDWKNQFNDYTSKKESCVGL

[6] = tested on: Candida; assay: Antifungal activity against Candida pannical at 1000 ug/ml after 48 hrs by filter paper disc method; type: functional; conditions: read-out: IZ
[7] = tested on: Aspergillus niger; assay: Antifungal activity against Aspergillus niger at 1000 ug/ml after 48 hrs by filter paper disc method; type: functional; conditions: read-out: IZ
[8] = tested on: Streptococcus pneumoniae; assay: Antibacterial activity against Streptococcus pneumoniae at 1000 ug/ml after 48 hrs by filter paper disc method; type: functional; conditions: read-out: IZ
[9] = tested on: Staphylococcus aureus; assay: Antibacterial activity against Staphylococcus aureus ATCC 25923 at 1000 ug/ml after 48 hrs by filter paper disc method; type: functional; conditions: ATCC 25923, 48 h, read-out: IZ
[10] = tested on: Bacillus spizizenii; assay: Antibacterial activity against Bacillus subtilis ATCC 6633 at 1000 ug/ml after 48 hrs by filter paper disc method; type: functional; conditions: ATCC 6633, 48 h, read-out: IZ
[11] = target: Tubulin; assay: Inhibition of tubulin polymerization (unknown origin); type: protein-complex assay, Homo sapiens
[12] = tested on: Candida albicans; assay: Antifungal activity against Candida albicans at 1000 ug/ml after 48 hrs by filter paper disc method; type: functional; conditions: read-out: IZ
[13] = target: T2, Acetylcholinesterase; assay: Inhibition of AChE (unknown origin) using acetylthiocholine as substrate by Ellman's method relative to control; conditions: concentration not given here
[14] = tested on: Bacillus subtilis; assay: Antibacterial activity against Bacillus subtilis at 5 ug/disc; type: functional; conditions: read-out: IZ
[15] = tested on: Staphylococcus aureus; assay: Antibacterial activity against Staphylococcus aureus at 5 ug/disc; type: functional; conditions: read-out: IZ
[16] = tested on: Escherichia coli; assay: Antibacterial activity against Escherichia coli ATCC 35218 at 1000 ug/ml after 48 hrs by filter paper disc method; type: functional; conditions: ATCC 35218, 48 h, read-out: IZ
[17] = tested on: NCI-H460; assay: Growth inhibition of human NCI-H460 cells after 48 hrs by SRB assay; type: functional, cell-based; conditions: NCI-H460, 48 h
[18] = tested on: MCF7; assay: Growth inhibition of human MCF7 cells after 48 hrs by SRB assay; type: functional, cell-based; conditions: MCF7, 48 h
[19] = tested on: SF-268; assay: Growth inhibition of human SF268 cells after 48 hrs by SRB assay; type: functional, cell-based; conditions: SF-268, 48 h
[20] = tested on: Neutrophil; assay: Anti inflammatory activity in human neuterophils preincubated for 10 mins followed by zymosan activated serum addition measured for 30 mins; type: functional, cell-based
[21] = tested on: Rattus norvegicus; assay: Anti-inflammatory activity in rat assessed as inhibition of hind paw edema relative to control; type: functional
[22] = tested on: Escherichia coli; assay: Antibacterial activity against Escherichia coli ATCC 35218 at 40 ug/ml after 48 hrs by filter paper disc method; type: functional; conditions: ATCC 35218, 48 h, read-out: IZ
[23] = tested on: Rattus norvegicus; assay: Anti-inflammatory activity in rat assessed as inhibition of cotton pellet-induced granuloma at 100 mg/kg relative to control; type: functional
[24] = 1-octanol/phosphate buffer partition coefficient, log P of the compound at pH 7.4 by ultraviolet spectrophotometric method; type: physicochemical
[25] = target: T3, Amyloid-beta precursor protein (Homo sapiens, UniProt P05067); assay: Inhibition of [125I]2-(3'-Iodo-4'-N-methylaminophenyl) benzothiazole binding to amyloid beta (1 to 40) (unknown origin) after 3 hrs by NaI well counting method
T3 sequence (P05067 whole entry): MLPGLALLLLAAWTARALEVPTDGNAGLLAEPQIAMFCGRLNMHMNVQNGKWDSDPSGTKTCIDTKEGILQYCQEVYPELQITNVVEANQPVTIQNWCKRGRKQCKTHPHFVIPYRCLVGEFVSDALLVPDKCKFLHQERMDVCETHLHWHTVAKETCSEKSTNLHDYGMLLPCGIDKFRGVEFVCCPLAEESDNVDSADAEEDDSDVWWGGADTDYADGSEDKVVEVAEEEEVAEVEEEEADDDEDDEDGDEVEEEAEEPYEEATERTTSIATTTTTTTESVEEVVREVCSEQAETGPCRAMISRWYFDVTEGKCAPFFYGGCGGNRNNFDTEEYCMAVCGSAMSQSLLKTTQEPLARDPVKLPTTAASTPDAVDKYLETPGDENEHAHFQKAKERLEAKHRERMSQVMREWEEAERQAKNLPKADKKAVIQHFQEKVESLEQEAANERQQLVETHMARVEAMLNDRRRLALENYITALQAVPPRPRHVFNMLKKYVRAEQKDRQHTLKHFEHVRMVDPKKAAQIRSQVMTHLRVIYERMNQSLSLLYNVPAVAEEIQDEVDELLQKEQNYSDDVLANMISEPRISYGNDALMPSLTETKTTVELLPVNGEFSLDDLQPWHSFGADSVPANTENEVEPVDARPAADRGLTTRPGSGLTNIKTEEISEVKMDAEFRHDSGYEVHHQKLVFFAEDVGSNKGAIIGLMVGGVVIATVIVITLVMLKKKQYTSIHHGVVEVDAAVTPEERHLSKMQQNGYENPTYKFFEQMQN

[26] = target: T3, Amyloid-beta precursor protein; assay: Inhibition of [125I]2-(3'-Iodo-4'-N-methylaminophenyl) benzothiazole binding to amyloid beta (1 to 42) (unknown origin) after 3 hrs by NaI well counting method
[27] = tested on: MCF7; assay: Inhibition of 17beta-estradiol-induced human MCF7 cells proliferation assessed as reduction in [3H]thymidine incorporation preincubated for 48 hrs followed by [3H]thymidine addition measured after 4 hrs by liquid scintillation counting method; type: functional, cell-based

Q: For `O=C(NCCc1ccccc1)c1sc2ccccc2c1Br`, which IC50 [1] is on record?
A: The IC50 was 17700 nM.

Q: Which IC50 [2] does the source give for `COC(=O)c1cc(C)c2c(n1)sc1ccc(OC)cc12` here?
A: Its IC50 is 2200 nM.

Q: Which “inhibition (INH)” value [3] does the source give for `O=C(O)Cc1nn(Cc2cc3cc(F)ccc3s2)c(=O)c2ccccc12` here?
A: Its value is 49%.

Q: With `O=C1SCc2cccc([N+](=O)[O-])c21` as the molecule, how does the Ki [4] read?
A: Its Ki is 11800 nM.

Q: And the Ki [5]?
A: The Ki was 341000 nM.

Q: For `O=c1c2ccccc2nc(-c2sc3ccccc3c2Cl)n1-c1ccc(F)cc1`, which zone of inhibition at 1000 µg/mL [6] is on record?
A: Its zone of inhibition at 1000 µg/mL is 14 mm.

Q: And the zone of inhibition at 1000 µg/mL [7]?
A: The zone of inhibition at 1000 µg/mL was 17 mm.

Q: Which results are given for `Cc1cc2ccc(O)cc2n(NC(=O)c2sc3cc(F)ccc3c2N)c1=O`?
A: zone of inhibition at 1000 µg/mL [8]: 22 mm; zone of inhibition at 1000 µg/mL [9]: 23 mm; zone of inhibition at 1000 µg/mL [10]: 25 mm

Q: For `COc1ccc(-c2sc3cc(OC)ccc3c2C(=O)c2cc(OC)c(OC)c(OC)c2)cc1`, which IC50 [11] is on record?
A: The IC50 was 40000 nM.

Q: Which zone of inhibition at 1000 µg/mL [12] does the source give for `O=C(CSc1nnc(-c2sc3ccccc3c2Cl)[nH]1)c1ccccc1` here?
A: Its zone of inhibition at 1000 µg/mL is 16 mm.

Q: For `COc1ccc2c(C(O)c3ccc(OC)c(O)c3)c(-c3cc(OC)c(OC)c(OC)c3)sc2c1` (stereo not given), which IC50 [11] is on record?
A: Its IC50 is 6100 nM.

Q: Which zone of inhibition at 1000 µg/mL [6] does the source give for `O=c1c2ccccc2nc(-c2sc3ccccc3c2Cl)n1-c1ccc([N+](=O)[O-])cc1` here?
A: The zone of inhibition at 1000 µg/mL was 17 mm.

Q: What about the zone of inhibition at 1000 µg/mL [7] of the same molecule?
A: The zone of inhibition at 1000 µg/mL was 10 mm.

Q: For `CCOC(=O)c1c(NC(=O)CN2CCN(Cc3ccccc3)CC2)sc2c1CCCC2`, which inhibition [13] is on record?
A: Its inhibition is 38.4%.

Q: For `COc1cccc(C2OC(c3sc4ccccc4c3Cl)=NN2C(C)=O)c1` (stereo not given), which zone of inhibition at 5 µg/disc [14] is on record?
A: The zone of inhibition at 5 µg/disc was 27 mm.

Q: What about the zone of inhibition at 5 µg/disc [15] of the same molecule?
A: The zone of inhibition at 5 µg/disc was 30 mm.

Q: With `COc1ccc(C2CC(c3ccc(NC(=O)c4sc5ccccc5c4Cl)cc3)=NN2)cc1` (stereo not given) as the molecule, how does the zone of inhibition at 1000 µg/mL [9] read?
A: Its zone of inhibition at 1000 µg/mL is 14 mm.

Q: Which results are given for `O=c1[nH]c(-c2sc3ccccc3c2Cl)nc2ccccc12`?
A: zone of inhibition at 1000 µg/mL [10]: 15 mm; zone of inhibition at 1000 µg/mL [16]: 16 mm

Q: Which zone of inhibition at 5 µg/disc [14] does the source give for `COc1ccc(C2OC(c3sc4ccccc4c3Cl)=NN2C(C)=O)cc1` (stereo not given) here?
A: Its zone of inhibition at 5 µg/disc is 28 mm.

Q: What about the zone of inhibition at 5 µg/disc [15] of the same molecule?
A: The zone of inhibition at 5 µg/disc was 28 mm.

Q: What does the source list for `CCOC(=O)c1c(-n2c(N)c(C#N)c(C)cc2=O)sc2c1CCCC2`?
A: IC50 [17]: 10 nM; IC50 [18]: 10 nM; IC50 [19]: 80 nM

Q: Which IC50 [20] does the source give for `CCOC(=O)c1c(NC(=O)C(Cl)Cl)sc2c1CCCC2` here?
A: Its IC50 is 396000 nM.

Q: What about the “inhibition (INH)” value [21] of the same molecule?
A: Its value is 81%.

Q: Which results are given for `CCOC(=O)c1c(NC(=O)/C(=N/Nc2ccc(Cl)cc2)C(C)=O)sc2c1CCCC2`?
A: IC50 [17]: 10 nM; IC50 [18]: 10 nM; IC50 [19]: 80 nM

Q: For `O=C(O)Cc1nn(Cc2cc3ccccc3s2)c(=O)c2ccccc12`, which “inhibition (INH)” value [3] is on record?
A: The value was 77%.

Q: With `Cc1ccccc1NNC(=O)Nc1sc2ccccc2c1Cl` as the molecule, how does the zone of inhibition at 40 µg/mL [22] read?
A: The zone of inhibition at 40 µg/mL was 13 mm.

Q: With `COc1ccc(C2CC(c3ccc(NC(=O)c4sc5ccccc5c4Cl)cc3)=NO2)cc1` (stereo not given) as the molecule, how does the zone of inhibition at 1000 µg/mL [6] read?
A: The zone of inhibition at 1000 µg/mL was 16 mm.

Q: Which inhibition in vivo at 100 mg/kg [23] does the source give for `COc1ccc2cc(/C=N/n3cnc4sc5c(c4c3=O)CCCC5)ccc2c1` here?
A: Its inhibition in vivo at 100 mg/kg is 28.3%.

Q: Which IC50 [2] does the source give for `COc1ccc2sc(N)cc2c1` here?
A: Its IC50 is 2140 nM.

Q: For `Nc1ccc(-c2cc3ccccc3s2)cc1`, which logD [24] is on record?
A: The logD was 2.87.

Q: And the Ki [25]?
A: Its Ki is 4.31 nM.

Q: And the Ki [26]?
A: Its Ki is 6.5 nM.

Q: Which IC50 [27] does the source give for `O=C(c1ccc(OCCN2CCCCC2)cc1)c1c(-c2ccc(Cl)cc2)sc2cc(O)ccc12` here?
A: The IC50 was 1 nM.

— ChEMBL document CHEMBL4130365, “An overview of benzo[b]thiophene-based medicinal chemistry” (Eur J Med Chem, 2017)
